Measured values reported in patent US8314121B2, “Imidazolone derivatives, preparation thereof as drugs, pharmaceutical compositions, and use thereof as protein kinase inhibitors, in particular CDC7” (Sanofi, priority 2006, dated 2012).

| melting point [°C] | Compound |
| --- | --- |
| 283 to 285 | CN1C(=O)/C(=C/c2c[nH]c3ncccc23)N=C1C1CCOCC1 [Example 72, (5Z)-5-[(1H-pyrrolo[2,3-b]pyridin-3-yl)methylidene]-3-methyl-2-(tetrahydro-2H-pyran-4-yl)-3,5-dihydro-4H-imidazol-4-one] |
| 220 to 222 | CCCCC1=N/C(=C\c2c[nH]c3ncccc23)C(=O)N1C [Example 66, (5Z)-2-butyl-3-methyl-5-(1H-pyrrolo[2,3-b]pyridin-3-ylmethylidene)-3,5-dihydro-4H-imidazol-4-one] |
| 280 to 286 | COc1cnc2[nH]cc(/C=C3\N=C(NCC4CC4)NC3=O)c2c1 [Example 34, (5Z)-2-[(cyclopropylmethyl)amino]-5-[(5-methoxy-1H-pyrrolo[2,3-b]pyridin-3-yl)methylidene]-3,5-dihydro-4H-imidazol-4-one] |
| 325 to 330 | CC(C)CNC1=N/C(=C\c2c[nH]c3ncc(Cl)cc23)C(=O)N1 [Example 29, (5Z)-5-[(5-chloro-1H-pyrrolo[2,3-b]pyridin-3-yl)methylidene]-2-[(2-methylpropyl)amino]-3,5-dihydro-4H-imidazol-4-one] |
| 282 | CC(C)CC1=N/C(=C\c2c[nH]c3ncc(Cl)cc23)C(=O)N1C [Example 76, (5Z)-5-[(5-chloro-1H-pyrrolo[2,3-b]pyridin-3-yl)methylidene]-3-methyl-2-(2-methylpropyl)-3,5-dihydro-4H-imidazol-4-one] |
| 317 to 319 | O=C1NC(C2CCOCC2)=N/C1=C\c1c[nH]c2ncccc12 [Example 71, (5Z)-5-(1H-pyrrolo[2,3-b]pyridin-3-ylmethylidene)-2-(tetrahydro-2H-pyran-4-yl)-3,5-dihydro-4H-imidazol-4-one] |
| 282 | CC(C)C1=N/C(=C\c2c[nH]c3ncc(Cl)cc23)C(=O)N1C [Example 82, (5Z)-5-[(5-chloro-1H-pyrrolo[2,3-b]pyridin-3-yl)methylidene]-3-methyl-2-(1-methylethyl)-3,5-dihydro-4H-imidazol-4-one] |
| 338 | CN1C(=O)/C(=C/c2c[nH]c3ncc(Cl)cc23)N=C1C1CCOCC1 [Example 73, (5Z)-5-[(5-chloro-1H-pyrrolo[2,3-b]pyridin-3-yl)methylidene]-3-methyl-2-(tetrahydro-2H-pyran-4-yl)-3,5-dihydro-4H-imidazol-4-one] |
| 361 | O=C1NC(N2CCOCC2)=N/C1=C\c1c[nH]c2ncc(-c3ccccc3)cc12 [Example 39, (5Z)-2-morpholin-4-yl-5-[(5-phenyl-1H-pyrrolo[2,3-b]pyridin-3-yl)methylidene]-3,5-dihydro-4H-imidazol-4-one] |
| 315 | CN(Cc1ccco1)C1=N/C(=C\c2c[nH]c3ncc(Cl)cc23)C(=O)N1 [Example 94, (5Z)-5-[(5-chloro-1H-pyrrolo[2,3-b]pyridin-3-yl)methylidene]-2-[(furan-2-ylmethyl)(methyl)amino]-3,5-dihydro-4H-imidazol-4-one] |
| 316 to 318 | CCCSC1=N/C(=C\c2c[nH]c3ncc(Cl)cc23)C(=O)N1 [Example 62, (5Z)-5-[(5-chloro-1H-pyrrolo[2,3-b]pyridin-3-yl)methylidene]-2-(propylsulphanyl)-3,5-dihydro-4H-imidazol-4-one] |
| 338 to 339 | Cc1cnc2[nH]cc(/C=C3\N=C(NCC(C)C)NC3=O)c2c1 [Example 44, (5Z)-2-[(2-methylpropyl)amino]-5-[(5-methyl-1H-pyrrolo[2,3-b]pyridin-3-yl)methylidene]-3,5-dihydro-4H-imidazol-4-one] |
| 291 to 293 | CC(C)SC1=N/C(=C\c2c[nH]c3ncc(Cl)cc23)C(=O)N1 [Example 63, (5Z)-5-[(5-chloro-1H-pyrrolo[2,3-b]pyridin-3-yl)methylidene]-2-((1-methyl)ethylsulphanyl)-3,5-dihydro-4H-imidazol-4-one] |
| 265 to 270 | O=C1NC(=S)N/C1=C\c1c[nH]c2ncc(-c3ccccc3)cc12 [Example 16, (5Z)-5-[(5-phenyl-1H-pyrrolo[2,3-b]pyridin-3-yl)methylene]-2-thioxoimidazolidin-4-one] |
